Assay results reported in paper PMC4513294, “L-Asparaginase from Streptomyces griseus NIOT-VKMA29: optimization of process variables using factorial designs and molecular characterization of L-asparaginase gene” (Scientific Reports, 2015).

Molecular target: T1, L-asparaginase (ansA) (Streptomyces griseus, UniProt Q54237)
T1 construct: gene orf4; full-length ORF (987 bp, 328 residues, 33721 Da) in pQE30, expressed in E. coli M15(pREP4); unpurified expressed cells; 34 kDa band on SDS-PAGE
T1 sequence (Q54237 1-328): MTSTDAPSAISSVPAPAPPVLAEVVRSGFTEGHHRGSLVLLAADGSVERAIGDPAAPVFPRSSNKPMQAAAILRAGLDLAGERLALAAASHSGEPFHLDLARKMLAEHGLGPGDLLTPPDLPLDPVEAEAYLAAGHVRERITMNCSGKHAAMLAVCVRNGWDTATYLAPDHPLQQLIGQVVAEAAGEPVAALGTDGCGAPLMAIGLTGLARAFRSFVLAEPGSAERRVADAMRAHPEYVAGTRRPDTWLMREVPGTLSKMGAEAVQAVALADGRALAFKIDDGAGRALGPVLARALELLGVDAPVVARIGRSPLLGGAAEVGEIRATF
Experiment: ammonia release, Nesslerization
Assay type: cell-based
Details: recombinant E. coli M15 expressed cells compared with control cells; host background activity present

Compound: NC(=O)C[C@H](N)C(=O)O [L-asparagine]
- ammonia release, Nesslerization: The expression of asparaginase biosynthetic gene was confirmed by Nesslerization assay
